Data on one molecule can be found in publication PMC9428149, “Tackling recalcitrant Pseudomonas aeruginosa infections in critical illness via anti-virulence monotherapy” (Nature Communications, 2022).

The structures appear in SMILES notation. “And” between values parts separate entries of the source, which are not always exact repeats. Equal entries are not always repeated. “Also recorded” adds a separate entry of the source.

Data set [1] concerns Caco-2 cells. In words: MTT cytotoxicity, Caco-2. The class given is cell-based, human. The note with it: for Cell viability (MTT) relative to Vehicle: Caco-2, replicates. As to the method: (§1) For the determination of cytotoxicity, cell viability was determined using the MTT (3-[4, 5-dimethyl-2-thiazolyl]−2, 5-diphenyl-2H-tetrazolium bromide) assay in the presence and absence of compound (D88). […] The cells were then treated with either vehicle or different concentrations of D88 (10, 20, 30, 40, and 50 µM) for 24 h at 37 °C and 5% CO2. After 24 h, the cells were washed three times with PBS and were incubated in 200 μL PBS containing 200 μg mL^−1 MTT (Sigma-Aldrich) in a 96-well culture plate for 2 h at 37 °C and 5% CO2. Following incubation, the supernatant was discarded, and the cells were lysed in 95% isopropanol and 5% formic acid.

In data set [2] the test system is RAW 264.7 cells. The data set can be described thus: MTT cytotoxicity, RAW 264.7. The class given is cell-based, mouse. The note with it: for Cell viability (MTT) relative to Vehicle: RAW 264.7, replicates. Here is the method:
as §1

For data set [3], the system named is PA14 burn-site infection. In words: Bacterial dissemination and load (CFU) in burn-site infection model. The class given is in vivo, mouse.

For the molecule `N#Cc1ccc(NC(=O)C(F)C(=O)Nc2ccc(Oc3ccccc3)cc2)cc1` (stereo not drawn) [D88], the cell viability entry in data set [1] (Caco-2, 10-50 µM, 24 h) was “None of the used compound concentrations exerted any cytotoxic effect; also recorded: no significant changes in cell viability”; in data set [2] (RAW 264.7, 10-50 µM, 24 h), “None of the used compound concentrations exerted any cytotoxic effect; also recorded: no significant changes in cell viability”. Besides, the “Cell viability (MTT) relative to Vehicle” value in data set [1] (10 μM) was 100.58 and 104.90 and 98.04 and 98.93 and 106.77 and 103.03; in data set [1] (20 μM) it was 88.76 and 107.49 and 114.33 and 95.92 and 103.96 and 102.97; in data set [1] (30 μM), 90.12 and 104.03 and 109.17 and 85.43 and 91.84 and 104.53; in data set [1] (40 μM), 102.40 and 93.65 and 104.99 and 92.78 and 93.27 and 104.68; in data set [1] (50 μM), 105.69 and 94.78 and 111.93 and 95.33 and 96.54 and 98.13; in data set [2] (10 μM), 106.22 and 99.08 and 96.63 and 98.82 and 101.11 and 88.19. Also, the “Cell viability (MTT) relative to Vehicle” value in data set [2] (20 μM) was 109.67 and 80.39 and 97.97 and 112.02 and 105.97 and 95.04; in data set [2] (30 μM), 93.49 and 78.32 and 83.19 and 78.26 and 102.67 and 94.83; in data set [2] (40 μM) it was 110.52 and 98.03 and 98.54 and 91.97 and 90.51 and 93.01; in data set [2] (50 μM), 100.26 and 92.62 and 78.32 and 79.67 and 99.66 and 96.62. In addition, the “bacterial dissemination to the intestinal tissues (ileum and colon)” value in data set [3] (burn + PA14, D88, 22 h) is listed as “significantly reduced”. The “bacterial load at the inoculation site” value in data set [3] (burn + infection, D88, 22 h) is given as “not affected”. The “bacterial load at the site of infection (CFUs)” value in data set [3] (infected and D88 treated animals) was ~1 × 10^8.
